Source: ChEMBL document CHEMBL5532651, “HDAC specificity and kinase off-targeting by purine-benzohydroxamate anti-hematological tumor agents” (Eur J Med Chem, 2024)
Active and inactive are the calls of the source. The rule behind the calls is not given here.

What was measured:
[1] = system: MCF7; assay: cells; format: functional, cell-based; details: Homo sapiens
[2] = system: HCT-116; assay: cells; details: Homo sapiens
[3] = system: Jurkat; assay: cells; details: Homo sapiens
[4] = system: NAMALVA; assay: cells; details: Homo sapiens
[5] = molecular target: T1, CYP1A2 (Homo sapiens, UniProt P05177); assay: Inhibition of CYP1A2 in liver microsomes (unknown origin) at 10 uM incubated for 10 mins relative to control; format: ADME, Microsome
T1 sequence (P05177 whole entry): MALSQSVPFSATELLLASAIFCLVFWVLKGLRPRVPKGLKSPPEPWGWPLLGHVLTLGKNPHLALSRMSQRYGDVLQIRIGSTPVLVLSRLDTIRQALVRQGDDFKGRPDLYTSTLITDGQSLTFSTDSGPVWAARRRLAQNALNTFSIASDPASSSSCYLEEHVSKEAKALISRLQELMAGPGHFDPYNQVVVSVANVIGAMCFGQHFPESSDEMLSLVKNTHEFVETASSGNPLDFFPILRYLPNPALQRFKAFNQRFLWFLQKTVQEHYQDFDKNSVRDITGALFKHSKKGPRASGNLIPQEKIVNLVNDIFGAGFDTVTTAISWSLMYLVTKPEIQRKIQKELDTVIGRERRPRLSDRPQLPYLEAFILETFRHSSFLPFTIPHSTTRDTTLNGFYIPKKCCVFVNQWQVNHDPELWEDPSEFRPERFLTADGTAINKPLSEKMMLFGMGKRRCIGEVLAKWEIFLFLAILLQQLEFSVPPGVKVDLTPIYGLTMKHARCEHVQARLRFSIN

[6] = molecular target: CYP2C9 (Homo sapiens, UniProt P11712); assay: Inhibition of CYP2C9 in liver microsomes (unknown origin) at 10 uM incubated for 10 mins relative to control; format: ADME, Microsome
Sequence of CYP2C9 (P11712 whole entry): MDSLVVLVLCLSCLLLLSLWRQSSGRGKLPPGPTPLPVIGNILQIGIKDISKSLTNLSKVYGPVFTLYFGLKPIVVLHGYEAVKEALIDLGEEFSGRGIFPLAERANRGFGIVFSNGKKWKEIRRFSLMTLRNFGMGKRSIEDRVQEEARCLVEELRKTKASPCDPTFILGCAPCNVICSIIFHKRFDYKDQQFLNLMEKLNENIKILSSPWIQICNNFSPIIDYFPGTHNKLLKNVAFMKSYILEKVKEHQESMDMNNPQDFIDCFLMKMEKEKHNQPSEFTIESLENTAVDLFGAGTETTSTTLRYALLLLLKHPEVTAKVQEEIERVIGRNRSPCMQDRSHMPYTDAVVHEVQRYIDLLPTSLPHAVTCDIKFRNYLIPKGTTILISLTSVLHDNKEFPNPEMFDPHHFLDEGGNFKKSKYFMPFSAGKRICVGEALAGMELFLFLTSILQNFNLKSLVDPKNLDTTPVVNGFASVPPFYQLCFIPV

[7] = molecular target: CYP2D6 (Homo sapiens, UniProt P10635); assay: Inhibition of CYP2D6 in liver microsomes (unknown origin) at 10 uM incubated for 10 mins relative to control; format: ADME, Microsome
Sequence of CYP2D6 (P10635 whole entry): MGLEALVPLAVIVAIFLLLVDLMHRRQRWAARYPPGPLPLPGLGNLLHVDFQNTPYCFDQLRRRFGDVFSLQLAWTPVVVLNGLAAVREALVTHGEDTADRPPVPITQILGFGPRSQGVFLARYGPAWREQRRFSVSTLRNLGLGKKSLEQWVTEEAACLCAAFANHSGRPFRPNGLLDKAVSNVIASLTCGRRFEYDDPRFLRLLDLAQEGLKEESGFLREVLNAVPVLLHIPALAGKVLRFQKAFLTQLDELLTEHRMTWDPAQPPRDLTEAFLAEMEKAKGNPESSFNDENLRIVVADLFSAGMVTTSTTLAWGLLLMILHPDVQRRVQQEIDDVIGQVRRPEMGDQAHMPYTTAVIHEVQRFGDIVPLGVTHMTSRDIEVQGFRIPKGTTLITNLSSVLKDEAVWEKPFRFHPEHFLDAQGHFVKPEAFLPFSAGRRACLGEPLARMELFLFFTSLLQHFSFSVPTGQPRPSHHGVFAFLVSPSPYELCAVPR

[8] = molecular target: T2, Protein deacetylase HDAC6 (Homo sapiens, UniProt Q9UBN7); assay: Inhibition of HDAC6 (unknown origin)
T2 sequence (Q9UBN7 whole entry): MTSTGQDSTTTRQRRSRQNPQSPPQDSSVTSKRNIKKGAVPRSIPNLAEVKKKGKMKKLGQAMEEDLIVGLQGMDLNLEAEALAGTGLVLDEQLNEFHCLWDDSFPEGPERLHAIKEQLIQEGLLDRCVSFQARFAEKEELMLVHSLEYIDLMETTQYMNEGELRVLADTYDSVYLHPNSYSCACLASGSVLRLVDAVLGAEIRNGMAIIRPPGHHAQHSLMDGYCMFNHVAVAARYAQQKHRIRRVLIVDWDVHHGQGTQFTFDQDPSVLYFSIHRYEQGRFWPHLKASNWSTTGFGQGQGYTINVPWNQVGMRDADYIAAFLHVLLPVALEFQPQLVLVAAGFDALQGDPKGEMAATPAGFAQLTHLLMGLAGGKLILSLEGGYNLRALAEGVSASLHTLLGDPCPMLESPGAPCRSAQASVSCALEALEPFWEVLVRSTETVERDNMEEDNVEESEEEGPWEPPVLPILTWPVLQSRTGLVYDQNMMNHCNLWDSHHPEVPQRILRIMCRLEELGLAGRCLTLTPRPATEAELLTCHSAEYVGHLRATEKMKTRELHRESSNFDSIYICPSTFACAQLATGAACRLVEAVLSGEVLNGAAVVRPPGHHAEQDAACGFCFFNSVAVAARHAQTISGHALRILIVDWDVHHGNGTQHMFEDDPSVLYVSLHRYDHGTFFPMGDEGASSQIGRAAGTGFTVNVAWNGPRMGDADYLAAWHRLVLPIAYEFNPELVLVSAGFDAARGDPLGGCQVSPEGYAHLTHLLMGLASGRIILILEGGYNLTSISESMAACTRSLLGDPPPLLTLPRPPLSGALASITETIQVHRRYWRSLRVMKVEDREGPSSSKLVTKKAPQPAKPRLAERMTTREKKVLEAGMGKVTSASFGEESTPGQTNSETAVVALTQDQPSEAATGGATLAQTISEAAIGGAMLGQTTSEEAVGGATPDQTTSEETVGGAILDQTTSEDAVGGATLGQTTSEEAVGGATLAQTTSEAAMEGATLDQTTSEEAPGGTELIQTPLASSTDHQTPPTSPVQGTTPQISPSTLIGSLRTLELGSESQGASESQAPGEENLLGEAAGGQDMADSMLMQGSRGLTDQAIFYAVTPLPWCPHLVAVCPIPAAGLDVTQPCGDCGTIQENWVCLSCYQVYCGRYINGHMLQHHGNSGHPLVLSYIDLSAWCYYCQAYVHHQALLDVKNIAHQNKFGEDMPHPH

[9] = molecular target: T1, CYP1A2; assay: Inhibition of CYP1A2 in liver microsomes (unknown origin) at 40 uM incubated for 10 mins relative to control; format: ADME, Microsome
[10] = Stability in human liver microsome assessed as half life at 1 uM measured for 60 mins by LC-MS/MS analysis; format: ADME; details: liver microsomes
[11] = Stability in mouse liver microsome assessed as half life at 1 uM measured for 60 mins by LC-MS/MS analysis; format: ADME; details: liver microsomes
[12] = Stability in human liver microsome assessed as intrinsic clearance at 1 uM measured for 60 mins by LC-MS/MS analysis; format: ADME; details: liver microsomes, read-out: CLH
[13] = Stability in mouse liver microsome assessed as intrinsic clearance at 1 uM measured for 60 mins by LC-MS/MS analysis; format: ADME; details: liver microsomes, read-out: CLH
[14] = system: Jurkat; assay: Cytotoxicity against human Jurkat cells assessed as cell growth inhibition at 0.03 to 1.8 uM by MTT assay; format: functional, cell-based; details: dose 0.03-1.8 µM, time lower 24.0 hrs, time upper […], TDE = time-dependent effect
[15] = system: NAMALVA; assay: Cytotoxicity against human NAMALVA cells assessed as cell growth inhibition at 0.04 to 17.4 uM by MTT assay; format: functional, cell-based; details: dose 0.04-17.4 µM, time lower 24.0 hrs, time upper […], TDE = time-dependent effect
[16] = system: U-937; assay: Cytotoxicity against human U-937 cells assessed as cell growth inhibition at 1.6 to 6.4 uM by MTT assay; format: functional, cell-based; details: dose 1.6-6.4 µM, time lower 24.0 hrs, time upper […], TDE = time-dependent effect
[17] = system: U-937; assay: Cytotoxicity against human U-937 cells assessed as cell growth inhibition incubated for 24 to 72 hrs by MTT assay; format: functional, cell-based; details: time lower 24.0 hrs, time upper […]
[18] = system: Jurkat; assay: Inhibition of cell proliferation of human Jurkat cells assessed as reduction in Ki-67 expression at IC50 measured after 48 hrs by flow cytometry; format: functional, cell-based
[19] = system: U-937; assay: Inhibition of cell proliferation of human U-937 cells assessed as reduction in Ki-67 expression at IC50 measured after 48 hrs by flow cytometry; format: functional, cell-based
[20] = system: NAMALVA; assay: Inhibition of cell proliferation of human NAMALVA cells assessed as reduction in Ki-67 expression at IC50 measured after 48 hrs by flow cytometry; format: functional, cell-based
[21] = system: Jurkat; assay: Induction of apoptosis in human Jurkat cells at IC50 measured after 48 hrs by flow cytometry; format: functional, cell-based
[22] = system: U-937; assay: Induction of apoptosis in human U-937 cells at IC50 measured after 48 hrs by flow cytometry; format: functional, cell-based
[23] = system: NAMALVA; assay: Induction of apoptosis in human NAMALVA cells at IC50 measured after 48 hrs by flow cytometry; format: functional, cell-based
[24] = molecular target: T2, Protein deacetylase HDAC6; assay: Inhibition of full-length recombinant human HDAC6 expressed in baculovirus infected Sf9 cells using RHKK(Ac)AMC as substrate preincubated for 5 to 10 mins followed by substrate addition measured after 2 hrs by fluorescence based assay
[25] = molecular target: T3, Protein deacetylase HDAC6 (Homo sapiens) (UniProt Q9UBN7); assay: Inhibition of HDAC6 in human Jurkat cells assessed as increase in acetyl-histone H3 level at IC50 incubated for 48 hrs by Western blot analysis; format: cell-based
T3 sequence (whole entry): T2 sequence (Q9UBN7 whole entry)

[26] = molecular target: T3, Protein deacetylase HDAC6 (Homo sapiens); assay: Inhibition of HDAC6 in human NAMALVA cells assessed as increase in acetyl-histone H3 level at IC50 incubated for 48 hrs by Western blot analysis; format: cell-based
[27] = molecular target: T3, Protein deacetylase HDAC6 (Homo sapiens); assay: Inhibition of HDAC6 in human U-937 cells assessed as increase in acetyl-histone H3 level at IC50 incubated for 48 hrs by Western blot analysis; format: cell-based
[28] = molecular target: T3, Protein deacetylase HDAC6 (Homo sapiens); assay: Inhibition of HDAC6 in human Jurkat cells assessed as increase in acetyl-alpha-tubulin level at IC50 incubated for 48 hrs by Western blot analysis; format: cell-based
[29] = molecular target: T3, Protein deacetylase HDAC6 (Homo sapiens); assay: Inhibition of HDAC6 in human NAMALVA cells assessed as increase in acetyl-alpha-tubulin level at IC50 incubated for 48 hrs by Western blot analysis; format: cell-based
[30] = molecular target: T3, Protein deacetylase HDAC6 (Homo sapiens); assay: Inhibition of HDAC6 in human U-937 cells assessed as increase in acetyl-alpha-tubulin level at IC50 incubated for 48 hrs by Western blot analysis; format: cell-based

Compound: O=C(NO)c1ccc(Nc2ncnc3[nH]cnc23)cc1
- IC50 [1]: > 50 µM
- IC50 [2]: > 50 µM
- IC50 [3]: > 50 µM
- IC50 [4]: > 50 µM

Compound: Cc1ccc(Nc2ncnc3c2ncn3Cc2ccc(C(=O)NO)cc2)cc1S(N)(=O)=O
- IC50 [1]: > 50 µM
- IC50 [2]: > 50 µM
- IC50 [3]: > 50 µM
- IC50 [4]: > 50 µM

Compound: C=C[C@H]1C[N@@]2CC[C@H]1C[C@@H]2[C@@H](O)c1ccnc2ccc(OC)cc12 [QUINIDINE]
- inhibition at 10 min, 10 µM [5]: 10%
- inhibition at 10 min, 10 µM [6]: 10%
- inhibition at 10 min, 10 µM [7]: 86%

Compound: Nc1ccc(S(=O)(=O)Nc2ccnn2-c2ccccc2)cc1 [SULFAPHENAZOLE]
- inhibition at 10 min, 10 µM [5]: 10%
- inhibition at 10 min, 10 µM [7]: 10%

Compound: O=C(NO)c1ccc(Cn2cnc3c(Nc4ccc(Cl)c(C(F)(F)F)c4)ncnc32)cc1
- IC50 [1]: 13.2 µM
- IC50 [2]: 2.9 µM
- IC50 [3]: 0.25 µM
- IC50 [4]: 0.26 µM

Compound: O=C(/C=C/c1cccc(S(=O)(=O)Nc2ccccc2)c1)NO [BELINOSTAT]
- IC50 [8]: 2.6 µM

Compound: COC(=O)c1ccc(Cn2cnc3c(Nc4ccc(Cl)c(C(F)(F)F)c4)ncnc32)cc1
- IC50 [1]: > 50 µM
- IC50 [2]: > 50 µM
- IC50 [3]: > 50 µM
- IC50 [4]: > 50 µM

Compound: Cc1nc2c([nH]1)c(=O)n(C)c(=O)n2Cc1ccco1 [FURAFYLLINE]
- inhibition at 10 min, 10 µM [6]: 10%
- inhibition at 10 min, 10 µM [7]: 10%
- inhibition at 10 min, 40 µM [9]: 78%

Compound: CCN(CC)CCNC(=O)c1c(C)[nH]c(/C=C2\C(=O)Nc3ccc(F)cc32)c1C [SUNITINIB]
- half-life at 1 µM [10]: 33 min
- half-life at 1 µM [11]: 12 min
- microsomal CLint at 1 µM [12]: 21 µL/min/mg
- microsomal CLint at 1 µM [13]: 58 µL/min/mg

Compound: O=C(NO)c1ccc(Cn2cnc3c(Nc4ccccc4)ncnc32)cc1
- IC50 [1]: > 50 µM
- IC50 [2]: > 50 µM
- IC50 [3]: 0.2 µM
- IC50 [4]: 0.13 µM

Compound: O=C(NO)c1ccc(Cn2cnc3c(O)ncnc32)cc1
- IC50 [1]: > 50 µM
- IC50 [2]: > 50 µM
- IC50 [3]: > 50 µM
- IC50 [4]: > 50 µM

Compound: CC(=O)N1CCN(c2ccc(OCC3COC(Cn4ccnc4)(c4ccc(Cl)cc4Cl)O3)cc2)CC1 (stereo not drawn) [KETOCONAZOLE]
- inhibition at 10 min, 10 µM [5]: 10%
- inhibition at 10 min, 10 µM [6]: 10%

Compound: O=C(NO)c1ccc(Cn2cnc3c(Nc4ccc(Br)cc4F)ncnc32)cc1
- IC50 [1]: 21.7 µM
- inhibition [14]: Tde
- inhibition [15]: Tde
- inhibition [16]: Tde
- inhibition [17]: Dose-Dependent Effect
- inhibition [18]: Active
- inhibition [19]: Active
- inhibition [20]: Active
- Activity [21]: Active
- Activity [22]: Active
- Activity [23]: Active
- IC50 [24]: 0.184 µM
- inhibition [25]: Active
- inhibition [26]: Active
- inhibition [27]: Active
- inhibition [28]: Active
- inhibition [29]: Active
- inhibition [30]: Active
- inhibition at 10 min, 10 µM [5]: 47%
- inhibition at 10 min, 10 µM [6]: 42%
- inhibition at 10 min, 10 µM [7]: 10%
- half-life at 1 µM [10]: > 120 min
- half-life at 1 µM [11]: 35 min
- microsomal CLint at 1 µM [12]: < 6 µL/min/mg
- microsomal CLint at 1 µM [13]: 20 µL/min/mg
- IC50 [2]: 21.7 µM
- IC50 [3]: 0.03 µM
- IC50 [4]: 0.04 µM

Compound: COc1ccc(Nc2ncnc3c2ncn3Cc2ccc(C(=O)NO)cc2)cc1OC
- IC50 [1]: > 50 µM
- IC50 [2]: 16.3 µM
- IC50 [3]: 0.6 µM
- IC50 [4]: 0.5 µM

Compound: COc1cc(Nc2ncnc3c2ncn3Cc2ccc(C(=O)NO)cc2)cc(OC)c1OC
- IC50 [1]: > 50 µM
- IC50 [2]: > 50 µM
- IC50 [4]: 0.8 µM

Compound: O=C(NO)c1cccc(Cn2cnc3c(O)ncnc32)c1
- IC50 [1]: > 50 µM
- IC50 [2]: > 50 µM
- IC50 [3]: > 50 µM
- IC50 [4]: > 50 µM
